Data reported in US20050261162A1, “Pharmaceutical composition for preventing and treating cancer and treating an inflammation” (priority 2001, published 2005).

How the values were obtained:
quinone reductase (QR) = experiment: Induction of quinone reductase activity in Hepa 1c1c7 cells; format: cell-based, rat; conditions: 48 hours, compared with the control
Experimental: Hepa 1c1c7 cell (2.5×10^4/ml), a liver cancer cell of […], was seeded into 96 well plate and was cultured in 10% FBS-αL-MEM (Gibco BRL) at 37° C. for 24 hours in 5% CO2 of humidified air. 190 μl of fresh media and 10 μl of xanthorrhizol dissolved in 10% of DMSO was added to above culture media and it was cultured under 5% CO2 at 37° C. for 48 hours. The culture media were discarded, and after washing with PBS (phosphate buffered saline), 50 μl of reaction solution containing 0.8% digitonin and 2 mM EDTA was added to each well, and it was cultured for 10 minutes to destroy the cell. […] Then, 50 μl of 5 mM potassium phosphate (pH 7.4) solution containing 0.3 mM of dicoumarol was added to terminate the reaction and the absorbance at 595 nm was measured spectrophotometrically.
To assess the effect of xanthorrhizol on cell growth, protein was measured in the 2nd plate set cultured under same condition above. […] And 200 μl of 0.5% SDS was added to cell and mixed, then the absorbance at 595 nm was measured spectophotometrically.
To estimate the experimental result, firstly, QR specific activity of each group treated with xanthorrhizol and the control group was calculated by following equation 1. […] QR specific activity=(Absorbance change of MTT per min/Absorbance change of crystal violet)×3247 nmol/mg [Equation 1] […]

COX-2 = experiment: Inhibition of COX-2 expression induced by TPA in mouse skin (western blotting); format: in vivo, ICR mice; conditions: topical pretreatment 30 min before TPA 10 nmol; skin taken 4 hr later
Experimental: It is known that the expression of COX-2 increases in mouse skin treated with TPA. Therefore, the effect of xanthorrhizol on COX-2 expression induced by TPA was measured as follows on the basis of this fact.
Female ICR mice of about 5 weeks of age were purchased from the Daehan Experimental Animal Center (Seoul, Korea). Mice were kept on a 12 h light/dark cycle.
The dorsal region of mice was shaved with an electric clipper. 2 days later, xanthorrhizol dissolved in 0.2 ml acetone was topically applied on mouse skin followed by topical application of TPA (10 nmol) dissolved in 0.2 ml acetone after 30 min. Mice were sacrificed by cervical dislocation 4 hr later. The skin was excised and the fat was removed. Fat-free skin was immediately placed in liquid nitrogen and pulverized in mortar.
Pulverized mouse skin was lysed in 400 μl of lysis buffer [150 mM NaCl, 0.5% Triton X-100, 50 mM tris-HCl, pH 7.4, 20 mM EGTA, 1 mM DTT, 1 mM Na3VO4, protease inhibitor cocktail tablet] for 30 min on ice. Lysates were centrifuged and total protein in supernatant was quantified by Bio-Rad protein assay. Aliquots of supernatant containing 30 μg protein were boiled in SDS sample loading buffer for 5 min before electrophoresis on a 12% SDS-polyacrylamide gel. […]

[1] = tested on: skin tumor formation induced by DMBA and TPA; experiment: Two-stage mouse skin carcinogenesis model (DMBA/TPA); format: in vivo, ICR mice
Description: The chemoprotective effect of xanthorrhizol and the methanolic extract of Curcuma xanthorrhiza Roxb. against tumor formation was investigated in multistage mouse carcinogenesis induced by tumor initiator (DMBA) and tumor promoter (TPA).
To evaluate the inhibitory effect of xanthorrhizol and the methanolic extract of Curcuma xanthoffhiza Roxb. against tumor formation, 30 mice (6 weeks age, female) per an experimental group was used. The dorsal region of ICR mice was shaved with an electric clipper. After a topical application of 0.2 μmol DMBA in 0.2 ml acetone, mice were treated topically with xanthorrhizol or the methanolic extract of Curcuma xanthorrhiza 30 min prior to each topical application of 10 nmol TPA in 0.2 ml acetone which was continued three times weekly for 19 weeks. The negative control was treated with only 0.2 ml acetone. Tumors were counted and recorded biweekly. The results were expressed as the average number of tumors per mouse (tumor multiplicity) and the percentage of tumor-bearing mice (tumor incidence) and are shown at FIG. 3 and FIG. 4. […] FIG. 4 is a photograph representing the inhibitory effect of xanthorrhizol against tumor formation at 19 weeks.

In the case of `CC(C)=CCC[C@@H](C)c1ccc(C)c(O)c1` [xanthorrhizol], the “QR induction ratio (treated/control)” value (quinone reductase (QR); 0.4 μM) is reported as “about 125%”, the “QR induction ratio (treated/control)” value (quinone reductase (QR); 50 μM) is reported as ~130% and the “expression of COX-2 induced by TPA” value (COX-2) is reported as “decreased by pretreatment with xanthorrhizol in a dose-dependent manner”. For the same molecule, the “average number of skin tumors per mouse (tumor multiplicity)” value ([1]; 6 μmol topical, three times per week for 19 weeks, DMBA/TPA control 15.5) was 4.0 skin tumors per mouse, the “percentage of tumor-bearing mice (tumor incidence)” value ([1]; 6 μmol topical, three times per week for 19 weeks, all DMBA/TPA control mice had tumors) was 57% and the tumor formation ([1]; topical application 30 min prior to each TPA, three times weekly for 19 weeks) was “inhibits tumor formation dose-dependently”.
